Source: patent US10653779B2, “Formulations with reduced oxidation” (Genentech, Inc., priority 2013, dated 2020)
“Also recorded” adds a separate entry of the source.

Assays:
[1] = Photosensitivity screening: H2O2 formation by antioxidant candidates upon light exposure (Amplex Ultra Red Assay); type: physicochemical; conditions: for (H2O2 produced by Compound)/(H2O2 produced by L-Trp): 1 mM in 20 mM histidine acetate pH 5.5, four hours of light at 250 W/m^2; for H2O2 produced in comparison to L-Trp (times more) / H2O2 production upon light exposure compared to L-Trp (in words): 1 mM, 20 mM L-His-acetate pH 5.5, 4 h light; for H2O2 production upon light exposure compared to L-Trp (in words): 0.22 million lux hours
Procedure: As a screening tool, antioxidant candidates were exposed to light for four hours at 250 W/m^2 and the resulting H2O2 formation was quantified by the Amplexassay. Specifically, antioxidants were prepared to 1 mM in 20 mM histidine acetate buffer at pH 5.5. The 1 mM antioxidant solutions were aliquoted into glass vials (2 mL/glass vial) and exposed to four hours of light at 250 W/m^2 in an Atlas SunTest CPS+ Xenon Test Instrument (Chicago, Ill.). Total UV dose was 90 watt-hours/square meter and total visible dose was 0.22 million lux hours over the 4-hour period. Control vials were wrapped in aluminum foil and treated similarly. The amount of hydrogen peroxide generated after exposure to light was measured using the Amplex® Ultra Red Assay (Invitrogen, Carlsbad, Calif.) following the manufacturer's recommended procedure. On addition of horseradish peroxidase (HRP), the dye reacted 1:1 stoichiometrically with H2O2, resulting in the production of fluorescent oxidation product resorufin. In this study, fluorescence readings were obtained using a Spectra Max M2 Micro-plate Reader (Molecular Devices, Sunnyvale, Calif.) with excitation and emission set at 560 nm and 590 nm, respectively. Final H2O2 concentrations were determined using a standard curve ranging from 0 μm to 20 μm. […]

[2] = Cyclic voltammetry (CV) screening of oxidation potentials; type: physicochemical; conditions: for Oxidation Potential (anodic peak): glassy carbon working electrode, 0.2 M lithium perchlorate; for Oxidation potential relative to L-Trp (in words): cyclic voltammetry
Procedure: The oxidation/reduction characteristics of the compounds were investigated. Several compounds, including L-Trp and derivatives, were evaluated for the protection of Trp oxidation in proteins using cyclic voltammetry (CV) and rank ordered based on their oxidation potentials (Table 2). Specifically, the candidate antioxidants were dissolved in deionized water and then added to a 0.2 M lithium perchlorate electrolyte solution. […] Solutions were scanned from −0.10 V to +1.50 V at a scan rate of either 100 or 500 mV/sec. The analytical cell was purged for four minutes with nitrogen before scanning of each antioxidant solution. The input was a linear scan of the potential of a working electrode, and the output was measurement of the resulting current. […] Redox reactions were characterized by sharp increases or decreases in current (peaks). The potential at which an oxidation reaction occurred was referred to as the anodic peak potential (or oxidation potential), and the potential at which a reduction occurred was referred to as is the cathodic peak (or reduction) potential.

Structure (SMILES)	(H2O2 produced by Compound)/(H2O2 produced by L-Trp) [1]	H2O2 produced in comparison to L-Trp (times more) [1] [times]	H2O2 production upon light exposure compared to L-Trp (in words) [1]	Oxidation Potential (anodic peak) [2] [V vs Ag/AgCl]	Oxidation potential relative to L-Trp (in words) [2]	H2O2 production upon light exposure compared to L-Trp (in words) ([1]; listed as tryptamine)
Cc1ncc(CO)c(CO)c1O [Pyridoxine]	5.16	5				
O=C(O)c1cc2cccc(O)c2[nH]1 [7-Hydroxyindole-2-Carboxylic Acid, 7-Hydroxy Indole-2-Carboxylic Acid]	0.15					
Oc1cccc2[nH]ccc12 [4-Hydroxyindole, 4-Hydroxy Indole]	0.00					
O=C(O)Cc1c[nH]c2ccc(O)cc12 [5-Hydroxyindole-3-Acetic Acid, 5-Hydroxy Indole-3-Acetic Acid]	0.11		low levels of H2O2 production	0.535		
N[C@@H](Cc1c[nH]c2ccc(F)cc12)C(=O)O [5-Fluoro-L-Trp, 5-Fluoro-Tryptophan]	0.71		produced more H2O2	0.965	higher oxidation potential than L-Trp	
Nc1ccc(O)cc1C(=O)O [5-Hydroxyanthranilic Acid, 5-Hydroxy Anthranilic Acid]	0.44		half as much H2O2			
COc1ccc2[nH]cc(C[C@H](N)C(=O)O)c2c1 (racemic) [5-Methoxy-DL-Trp, 5-Methoxy-Tryptophan]	1.05		produced more H2O2	0.890		
NCCc1c[nH]c2ccccc12 [Tryptamine]	0.53		about half as much H2O2	1.010	higher oxidation potential than L-Trp	two times less
Cc1c(C)c2c(c(C)c1O)CCC(C)(C(=O)O)O2 (stereo not shown) [Trolox]	122.75	123				
Nc1ccc2[nH]cc(C[C@H](N)C(=O)O)c2c1 (racemic) [5-Amino-DL-Trp, 5-Amino-Tryptophan]	0.29		low levels of H2O2 production	0.410		
CC(=O)N[C@@H](Cc1c[nH]c2ccccc12)C(=O)O [N-Acetyl-L-Trp, N-Acetyl-Tryptophan]	0.31			0.875		
O=C(O)c1cc(O)ccc1O [5-Hydroxysalicylic Acid, 5-Hydroxy Salicylic Acid]	0.84					
NC(Cc1c[nH]c2ccc([N+](=O)[O-])cc12)C(=O)O (racemic) [5-nitro-DL-tryptophan]				1.055	higher oxidation potential than L-Trp	
O=C(O)Cc1c[nH]c2ccccc12 [Indole-3-Acetic Acid]	2.40		twice as much H2O2; also recorded: two times more; also recorded: produced more H2O2	0.948	higher oxidation potential than L-Trp	
Nc1ccccc1C(=O)O [Anthranilic Acid]	2.50		twice as much H2O2			
